Assay [1] addresses T1, endothelin-receptor (membrane fraction of the media from porcine aorta) (Sus scrofa, UniProt Q29010).
T1 construct: Membrane fractions were prepared from porcine and rat hearts, rat thoracic aorta, and the media of porcine aorta; from tissue; host or cells: media of porcine aorta, membrane fraction
T1 sequence (Q29010 21-427): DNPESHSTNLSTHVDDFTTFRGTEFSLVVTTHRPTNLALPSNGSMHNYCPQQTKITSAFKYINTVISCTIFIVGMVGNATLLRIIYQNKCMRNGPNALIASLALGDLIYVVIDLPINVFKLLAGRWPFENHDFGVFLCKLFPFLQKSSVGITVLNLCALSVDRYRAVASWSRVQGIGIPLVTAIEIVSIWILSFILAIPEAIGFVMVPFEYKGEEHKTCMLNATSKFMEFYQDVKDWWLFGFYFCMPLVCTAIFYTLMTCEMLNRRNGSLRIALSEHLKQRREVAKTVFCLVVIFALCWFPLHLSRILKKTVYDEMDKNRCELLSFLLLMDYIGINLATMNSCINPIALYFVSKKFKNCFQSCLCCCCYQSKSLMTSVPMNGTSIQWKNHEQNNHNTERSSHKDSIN
Kind of assay: Inhibitory effect on the binding of 125I-endothelin-1 to the receptor, media of porcine aorta membrane. Particulars: 25 pM 125I-endothelin-1, 37° C., 1 hour, read-out: IC50 (concentration to inhibit 50% of the specific binding of 125I-endothelin-1). As to the method: (§1) Inhibitory Effect on the Binding of ^125 I-Endothelin-1 to the Receptor
(§2) Membrane fractions were prepared from porcine and rat hearts, rat thoracic aorta, and the media of porcine aorta. Each membrane fraction was incubated, in the presence or absence of the present compound 1 with 25 pM of ^125 I-endothelin-1 at 37° C. for 1 hour. After the reaction was completed, ^125 I-endothelin-1 bound to each membrane fraction was separated by rapid filtration through glass fiber filters and its radioactivity was determined with a gamma-counter. The specific binding was calculated by subtracting, from the total binding, the non-specific binding which was determined in the presence of 10^-7 M of non-radioactive endothelin-1. The concentration of the present compound 1 to inhibit 50% of the specific binding (i.e., IC50) is shown at Table 1.

Assay [2] deals with T2, endothelin-receptor (membrane fraction of porcine heart) (Sus scrofa, UniProt Q29010).
T2 construct: Membrane fractions were prepared from porcine and rat hearts; from tissue; host or cells: porcine heart, membrane fraction
T2 sequence (Q29010 21-427): T1 sequence (Q29010 21-427)
Briefly: Inhibitory effect on the binding of 125I-endothelin-1 to the receptor, porcine heart membrane. To be noted: 25 pM 125I-endothelin-1, 37° C., 1 hour, read-out: IC50 (concentration to inhibit 50% of the specific binding of 125I-endothelin-1). As to the method:
as §1, §2

Assay [3] addresses T3, endothelin-receptor (membrane fraction of rat aorta) (Rattus norvegicus, UniProt P26684).
T3 construct: Membrane fractions were prepared from porcine and rat hearts, rat thoracic aorta, and the media of porcine aorta; from tissue; host or cells: rat thoracic aorta, membrane fraction
T3 sequence (P26684 21-426): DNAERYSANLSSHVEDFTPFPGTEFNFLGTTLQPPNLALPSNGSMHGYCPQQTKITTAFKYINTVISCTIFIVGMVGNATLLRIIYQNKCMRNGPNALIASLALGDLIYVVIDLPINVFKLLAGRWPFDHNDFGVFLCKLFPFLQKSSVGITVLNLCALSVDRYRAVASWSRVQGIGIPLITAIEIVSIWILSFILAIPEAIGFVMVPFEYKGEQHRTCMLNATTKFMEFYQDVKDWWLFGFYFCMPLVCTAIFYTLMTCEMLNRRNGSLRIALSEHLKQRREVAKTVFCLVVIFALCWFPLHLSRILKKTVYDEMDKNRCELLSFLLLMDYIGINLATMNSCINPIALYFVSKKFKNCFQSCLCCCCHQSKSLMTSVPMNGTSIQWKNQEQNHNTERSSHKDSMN
Kind of assay: Inhibitory effect on the binding of 125I-endothelin-1 to the receptor, rat aorta membrane. To be noted: 25 pM 125I-endothelin-1, 37° C., 1 hour, read-out: IC50 (concentration to inhibit 50% of the specific binding of 125I-endothelin-1). How it is done:
as §1, §2

Assay [4] concerns endothelin-1-induced increase in cytosolic calcium ion concentration (rat aortic smooth muscle A7r5 cells). Briefly: Inhibition of the endothelin-1-induced increase in cytosolic calcium ion concentration in A7r5 cells. To be noted: fura-2, 1 min pre-incubation, 10^-8 M endothelin-1, read-out: IC50 (concentration to inhibit the endothelin-1-induced increase in cytosolic calcium ion by 50%). Type of assay: cell-based. As to the method: Inhibition of the endothelin-1-induced increase in cytosolic calcium ion concentration
To a cuvette was put the suspension of rat aortic smooth muscle A7r5 cells, obtained from Dainippon Pharmaceutical Co., Ltd., loaded with 2 μM of fura-2 (Dojindo), then the change in fluorescence intensity was determined with a calcium analizer (CAF100, Nippon Bunkou Co.). In the determination,the exciting was performed at 340 nm and 380 nm and the recording at 510 nm. Calculation for the concentration of cytosolic calcium ion was performed according to the method of Grynkiewicz et al. (J.Biol.Chem., 260, P. 3440-3450, 1985). The experiment was performed as follows: at first, the present compounds were added to the cell suspension in the cuvette and the mixture was incubated for 1 min. Then, 10^-8 M of endothelin-1 was added thereto and the change in fluorescence intensity was determined. The concentration of the present compounds to inhibit the endothelin-1-induced increase in cytosolic calcium ion by 50%, (i.e., IC50) is shown at Table 2.

Among the data in US5248807A, “Triterpene derivatives” (Shionogi & Co., Ltd., priority 1991, dated 1993) are IC50 values, retold here.

As for `CC1(C)CCC2(C(=O)O)CCC3(COC(=O)C=Cc4ccc(O)c(O)c4)C(=CCC4C5(C)CCC(=O)C(C)(C)C5CCC43C)C2C1` (stereo not drawn) [Compound 1], the IC50 in assay [1] amounted to 32 nM; in assay [2] it was 83 nM; in assay [3], 56 nM; in assay [4] it was 11 nM.

`CC1(C)CCC2(C(=O)O)CCC3(COC(=O)C=Cc4ccccc4)C(=CCC4C5(C)CCC(=O)C(C)(C)C5CCC43C)C2C1` (stereo not drawn) [Compound 3]: the IC50 in assay [4] was 18 nM.

Regarding `CC(=O)Oc1cccc(C=CC(=O)OCC23CCC4(C(=O)O)CCC(C)(C)CC4C2=CCC2C4(C)CCC(=O)C(C)(C)C4CCC23C)c1` (stereo not drawn) [Compound 4], the IC50 in assay [4] worked out at 34 nM.

`CC1(C)CCC2(C(=O)O)CCC3(COC(=O)C=Cc4cccc(O)c4)C(=CCC4C5(C)CCC(=O)C(C)(C)C5CCC43C)C2C1` (stereo not drawn) [Compound 5]: the IC50 in assay [4] is 11 nM.

With `CC1(C)CCC2(C(=O)O)CCC3(COC(=O)C=Cc4cccc(OS(=O)(=O)O)c4)C(=CCC4C5(C)CCC(=O)C(C)(C)C5CCC43C)C2C1` (stereo not drawn) [Compound 6], the IC50 in assay [4] was 14 nM.

`CC1(C)CCC2(C(=O)O)CCC3(COC(=O)C=Cc4cccc(OC(=O)CCC(=O)O)c4)C(=CCC4C5(C)CCC(=O)C(C)(C)C5CCC43C)C2C1` (stereo not drawn) [Compound 7]: in assay [4], the IC50 was 9 nM.

Consider `CC(=O)Oc1cc(C=CC(=O)OCC23CCC4(C(=O)O)CCC(C)(C)CC4C2=CCC2C4(C)CCC(=O)C(C)(C)C4CCC23C)cc(OC(C)=O)c1` (stereo not drawn) [Compound 8], for which, in assay [4], the IC50 amounted to 260 nM.

In the case of `CC1(C)CCC2(C(=O)O)CCC3(COC(=O)C=Cc4cc(O)cc(O)c4)C(=CCC4C5(C)CCC(=O)C(C)(C)C5CCC43C)C2C1` (stereo not drawn) [Compound 9], in assay [4], the IC50 stood at 4.5 nM.

Turning to `CC(=O)Oc1ccc(C=CC(=O)OCC23CCC4(C(=O)O)CCC(C)(C)CC4C2=CCC2C4(C)CCC(=O)C(C)(C)C4CCC23C)cc1` (stereo not drawn) [Compound 10], the IC50 in assay [4] was found to be 180 nM.

Consider `CC1(C)CCC2(C(=O)O)CCC3(COC(=O)C=Cc4ccc(O)cc4)C(=CCC4C5(C)CCC(=O)C(C)(C)C5CCC43C)C2C1` (stereo not drawn) [Compound 11], for which the IC50 in assay [4] was determined as 27 nM.

On to `CC1(C)CCC2(C(=O)O)CCC3(COC(=O)C=Cc4ccccc4O)C(=CCC4C5(C)CCC(=O)C(C)(C)C5CCC43C)C2C1` (stereo not drawn) [Compound 12], for which the IC50 in assay [4] is 27 nM.

`CC1(C)CCC2(C(=O)O)CCC3(COC(=O)C=Cc4ccccn4)C(=CCC4C5(C)CCC(=O)C(C)(C)C5CCC43C)C2C1` (stereo not drawn) [Compound 13]: in assay [4], the IC50 was found to be 25 nM.
